The values that follow come from patent US6596772B1, “Phosphate mimics and methods of treatment using phosphatase inhibitors” (Sugen, Inc., priority 1999, dated 2003).

Assay in all cases: PTP IC50 assay, fluorescent substrate DiFMUP
Assay type in all cases: biochemical

One assay has as its target T1, PTP 1B (Homo sapiens, UniProt P18031).
T1 construct: made in house; host or cells: Sf-9 insect cells (pFastBac-G2T)
T1 sequence (P18031 1-435): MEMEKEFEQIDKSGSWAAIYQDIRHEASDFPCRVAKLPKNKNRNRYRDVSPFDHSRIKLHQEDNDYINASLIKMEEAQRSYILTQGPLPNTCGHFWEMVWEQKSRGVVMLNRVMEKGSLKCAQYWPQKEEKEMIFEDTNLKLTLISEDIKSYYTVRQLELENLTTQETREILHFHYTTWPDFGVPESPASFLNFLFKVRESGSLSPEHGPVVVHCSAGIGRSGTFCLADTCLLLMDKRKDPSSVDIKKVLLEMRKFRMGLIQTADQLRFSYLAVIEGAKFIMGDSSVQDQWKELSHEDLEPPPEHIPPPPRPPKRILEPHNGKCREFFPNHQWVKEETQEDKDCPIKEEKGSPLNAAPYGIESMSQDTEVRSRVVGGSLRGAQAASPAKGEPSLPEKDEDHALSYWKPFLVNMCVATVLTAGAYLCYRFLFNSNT
From the text:
The PTP1b cDNA was amplified from human placenta single strand cDNA (Clontech RNA) using the following oligonucleotides: 5′oligo: 5′-[…] (SEQ ID NO: 4) 3′oligo: 5′-[…] (SEQ ID NO: 5) It was subsequently ligated into pFasBac G2TBamH1Xba-1 sites.
(§1) The following in vitro assay procedure is preferred to determine the level of activity and effect of the different compounds of the present invention on one or more of the PTPs. Similar assays can be designed along the same lines for any PTP using techniques well known in the art.
(§2) The catalytic assays described herein are performed in a 96-well format. The general procedure begins with the determination of PTP optimal pH using a three-component buffer system that minimizes ionic strength variations across a wide range of buffer pH. Next, the Michaelis-Menten constant, or Km, is determined for the substrate 6,8-difluoro-4-methylumbelliferyl phosphate (DiFMUP). This Km value is subsequently used as the substrate reaction concentration for compound screening. Finally, the test PTP is exposed to varying concentrations of compound for fifteen minutes and allowed to react with substrate for ten minutes. The results are plotted as percent inhibition versus compound concentration and the IC50 interpolated from the plot.
(§3) All assays were performed using DiFMUP as substrate. The optimum pH and substrate Km was determined for each PTP used.
(§4) PTPase activity was assayed at 25° C. in a 100-μl reaction mixture containing an appropriate concentration of DiFMUP as substrate. The reaction was initiated by addition of the purified PTP and quenched after 10 min by addition of 1% H2O2/100 mM NaCl. The non-enzymatic hydrolysis of the substrate was corrected by measuring the control without the addition of the enzyme. The amount of DiFMU produced was determined from the increase in the fluorescence (360 nm excitation/460 nm emission) over that of background in the absence of PTPase. To determine the kinetic parameter, Km, the initial velocities were measured at various substrate concentrations and the data were fitted to the Michaelis equation where velocity=(Vmax*[S])/(Km+[S]), and [S]=substrate reaction concentration.
(§5) The effect of the compounds on PTP was evaluated at 25° C. using DiFMUP as substrate. PTP was pre-incubated for fifteen minutes with various concentrations of compound. Substrate was then added at a fixed concentration (usually equal to the Km previously calculated). After 10 minutes, the reaction was quenched. The hydrolysis of DiFMUP was followed as described above. The percent inhibition was calculated as follows: Percent Inhibition=[(control signal−compound signal)/control signal]×100%. The IC50 was then determined by interpolation of a percent inhibition versus compound concentration plot.
(§6) Plasmids designed for bacterial GST-PTP fusion protein expression were derived by insertion of PCR-generated human PTP fragments into pGEX vectors (Pharmacia Biotech). Several of these constructs were then used to subclone phosphatases into pFastBac-1 for expression in Sf-9 insect cells. Oligonucleotides used for the initial amplification of PTP genes are as described above. The cDNAs were prepared using the Gilbo BRL superscript preamplification system on RNAs purchased from Clontech.

In a further assay the target is T2, PTP SHP2 (Homo sapiens, UniProt Q06124).
T2 construct: The catalytic domain was amplified using the following oligonucleotides; made in house; host or cells: Sf-9 insect cells (pFastBac-G2T)
T2 sequence (Q06124 247-517 limits assumed): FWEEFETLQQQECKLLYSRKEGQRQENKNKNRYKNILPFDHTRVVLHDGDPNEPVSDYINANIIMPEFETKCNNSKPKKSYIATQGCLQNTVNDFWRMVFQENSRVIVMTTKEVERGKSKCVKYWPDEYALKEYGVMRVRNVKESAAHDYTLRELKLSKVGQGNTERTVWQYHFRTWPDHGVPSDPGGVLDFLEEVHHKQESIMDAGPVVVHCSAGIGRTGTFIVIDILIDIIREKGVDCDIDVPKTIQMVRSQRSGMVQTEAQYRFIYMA
From the text: SHP-2 cDNA was used as described earlier (Vogel W., et al.,1993, Science, 259:1611-4). The catalytic domain was amplified using the following oligonucleotides 5′oligo: 5′-[…]-3′ (SEQ ID NO: 2) 3′oligo: 5′-[…]-3′ (SEQ ID NO: 3) and subsequently subcloned into BamH1-Xba-1 sites. It was then ligated into pfas Bac-G2T BamH1-Xba-1 sites.
as §1, §2, §3, §4, §5, §6

The next assay addresses T3, PTP EPSILON (Homo sapiens, UniProt P23469).
T3 construct: made in house; host or cells: Sf-9 insect cells (pFastBac-G2T); a pGEX 6P-1 construct also existed
From the text: The PTPepsilon cDNA was amplified from human placenta single-strand cDNA (Clontech RNA) using the following oligonucleotides: 5′oligo: 5′-[…]-3′ (SEQ ID NO: 6) 3′oligo: 5′-[…]-3′ (SEQ ID NO: 7) After cloning this PCR product into the Bam HI/Xho I sites of pGEX 6P-1, this phosphatase was subcloned using the same restriction sites in pFastBac-G2T.
as §1, §2, §3, §4, §5, §6

Where [1] appears, read: DiFMUP as substrate, 25° C., read-out: PTP IC50 1B.
Where [2] appears, read: DiFMUP as substrate, 25° C., read-out: PTP IC50 SHP2.
[3] abbreviates: DiFMUP as substrate, 25° C., read-out: PTP IC50 Epilson.

Where two headings read alike, the source gives them in different places.

T3 sequence (P23469 80-393 limits assumed): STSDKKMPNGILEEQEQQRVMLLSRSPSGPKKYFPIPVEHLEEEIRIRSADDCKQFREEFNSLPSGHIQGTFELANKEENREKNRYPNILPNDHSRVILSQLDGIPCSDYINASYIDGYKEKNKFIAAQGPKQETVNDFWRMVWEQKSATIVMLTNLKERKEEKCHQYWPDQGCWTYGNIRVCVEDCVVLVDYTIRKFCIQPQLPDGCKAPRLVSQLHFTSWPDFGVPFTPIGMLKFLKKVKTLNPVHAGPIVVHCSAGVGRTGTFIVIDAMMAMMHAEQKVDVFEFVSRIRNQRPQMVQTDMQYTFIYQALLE

For the molecule `O=[N+]([O-])c1ccc(NCC(O)COc2ccc(S(=O)(=O)C(F)(F)F)cc2[N+](=O)[O-])cc1` (stereo not drawn) [Example 60, 1-(4-Nitro-phenylamino)-3-(2-nitro-4-trifluoromethanesulfonyl-phenoxy)-propan-2-ol], the results for the IC50 at PTP 1B (setting [1]), at PTP SHP2 (setting [2]) and at PTP EPSILON (setting [3]) were 16.2 µM, 4.8 µM and 50.9 µM, respectively.
Regarding `O=[N+]([O-])c1cc(S(=O)(=O)C(F)(F)F)ccc1Oc1ccc(S(=O)(=O)c2ccc(Oc3ccc(S(=O)(=O)C(F)(F)F)cc3[N+](=O)[O-])cc2)cc1` [Example 63, Bis-{[4-(2-nitro-4-trifluoromethanesulfonyl)-phenoxy]-phenyl}sulfone], the IC50 was found to be 0.7 µM at PTP 1B, 0.4 µM at PTP SHP2 and 2.4 µM on PTP EPSILON.
For `O=C(O)c1cc2cc(NS(=O)(=O)C(F)(F)F)ccc2[nH]1` [Example 77, 5-Trifluoromethanesulfonylamino-1H-indole-2-carboxylic acid], the IC50 on PTP 1B (setting [1]) is over 100 µM; at PTP SHP2 (setting [2]), over 100 µM; on PTP EPSILON (setting [3]) it was over 20 µM.
Regarding `Cn1c(C(=O)O)cc2cc(NS(=O)(=O)C(F)(F)F)ccc21` [Example 78, 1-Methyl-5-trifluoromethanesulfonylamino-1H-indole-2-carboxylic acid], the IC50 at PTP 1B (setting [1]), at PTP SHP2 (setting [2]) and at PTP EPSILON (setting [3]) was over 100 µM in each case.
Turning to `Cc1cc2cc(NS(=O)(=O)C(F)(F)F)ccc2n1CC(=O)O` [Example 79, (2-Methyl-5-trifluoromethanesulfonylamino-indol-1-yl)-acetic acid], the IC50 was over 100 µM at PTP 1B (setting [1]), over 100 µM on PTP SHP2 (setting [2]) and over 20 µM at PTP EPSILON (setting [3]).
In the case of `Cn1c(C(=O)Nc2ccccc2)cc2cc(NS(=O)(=O)C(F)(F)F)ccc21` [Example 80, 1-Methyl-5-trifluoromethanesulfonylamino-1H-indole-2-carboxylic acid phenylamide], the IC50 on PTP 1B (setting [1]) is over 20 µM; at PTP SHP2 (setting [2]), 58.1 µM; on PTP EPSILON (setting [3]), 26.9 µM.
In the same order, the values of `O=C(Nc1ccccc1)c1cc2cc(NS(=O)(=O)C(F)(F)F)ccc2[nH]1` [Example 81, 5-Trifluoromethanesulfonylamino-1H-indole-2-carboxylic acid phenylamide] are 14.6 µM, 6.2 µM and 4.4 µM.
The like results for `Cn1c(C(=O)Nc2cccc(C(=O)O)c2)cc2cc(NS(=O)(=O)C(F)(F)F)ccc21` [Example 82, 3-[(1-Methyl-5-trifluoromethanesulfonylamino-1H-indole-2-carbonyl)-amino]-benzoic acid] were, in that order, over 20 µM, 87.7 µM and 7.7 µM.
The like results for `O=C(O)c1cccc(NC(=O)c2cc3cc(NS(=O)(=O)C(F)(F)F)ccc3[nH]2)c1` [Example 83, 3-[(5-Trifluoromethanesulfonylamino-1H-indole-2-carbonyl)-amino]-benzoic acid] were, in that order, over 20 µM, 58.5 µM and 8.4 µM.
`O=C(O)c1ccc(NC(=O)c2cc3cc(NS(=O)(=O)C(F)(F)F)ccc3[nH]2)cc1` [Example 84, 4-[(5-Trifluoromethanesulfonylamino-1H-indole-2-carbonyl)-amino]-benzoic acid]: the IC50 on PTP 1B (setting [1]) is over 20 µM; on PTP SHP2 (setting [2]) it was 62 µM; at PTP EPSILON (setting [3]), 16.1 µM.
As to `Cc1cc2cc(NS(=O)(=O)C(F)(F)F)ccc2n1CC(=O)Nc1cccc(C(=O)O)c1` [Example 86, 3-[2-(2-Methyl-5-trifluoromethanesulfonylamino-indol-1-yl)-acetylamino]-benzoic acid], the values for the IC50 at PTP 1B (setting [1]), at PTP SHP2 (setting [2]) and on PTP EPSILON (setting [3]) were over 20 µM, over 100 µM and over 20 µM, respectively.
In the case of `Cc1cc2cc(NS(=O)(=O)C(F)(F)F)ccc2n1CC(=O)NCc1ccc(C(=O)O)cc1` [Example 87, 4-{[2-(2-Methyl-5-trifluoromethanesulfonylamino-indol-1-yl)-acetylamino]-methyl}-benzoic acid], the IC50 was over 20 µM at PTP 1B (setting [1]), 97 µM at PTP SHP2 (setting [2]) and over 20 µM at PTP EPSILON (setting [3]).
Regarding `Cc1cc2cc(NS(=O)(=O)C(F)(F)F)ccc2n1CC(=O)OC(C)(C)C` [Example 88, (2-Methyl-5-trifluoromethanesulfonylamino-indol-1-yl)-acetic acid tert-butyl ester], the results for the IC50 at PTP 1B (setting [1]), on PTP SHP2 (setting [2]) and at PTP EPSILON (setting [3]) were over 20 µM, 31.4 µM and 8.2 µM, respectively.
The like results for `CCOC(=O)c1cc2cc(NS(=O)(=O)C(F)(F)F)ccc2n1C` [Example 89, 1-Methyl-5-trifluoromethanesulfonylamino-1H-indole-2-carboxylic acid ethyl ester] were, in that order, over 20 µM, 69 µM and over 20 µM.
The like results for `O=C(O)c1ccc2cc(NS(=O)(=O)C(F)(F)F)ccc2c1` [Example 90, 6-Trifluoromethanesulfonylamino-naphthalene-2-carboxylic acid] were, in that order, over 20 µM, 64 µM and 35.9 µM.
Regarding `O=C(O)c1ccc2cc(CN(Cc3ccc4cc(C(=O)O)ccc4c3)S(=O)(=O)C(F)(F)F)ccc2c1` [Example 91, N,N-Bis[(6-carboxyl-naphthalen-2-yl)methyl]trifluoromethanesulfonamide], the IC50 is over 20 µM on PTP 1B (setting [1]), 25.9 µM at PTP SHP2 (setting [2]) and over 20 µM at PTP EPSILON (setting [3]).
In the case of `CN(Cc1ccc2cc(C(=O)O)ccc2c1)S(=O)(=O)C(F)(F)F` [Example 92, 6-[(Methyl-trifluoromethanesulfonyl-amino)-methyl]-naphthalene-2-carboxylic acid], the IC50 on PTP 1B (setting [1]) was over 20 µM; at PTP SHP2 (setting [2]) it was 48 µM; at PTP EPSILON (setting [3]), 5.1 µM.
In the same order, the values of `CN(Cc1ccc2cc(C(=O)Nc3cccc(C(=O)O)c3)ccc2c1)S(=O)(=O)C(F)(F)F` [Example 93, 3-({6-[(Methyl-trifluoromethanesulfonyl-amino)-methyl]-naphthalene-2-carbonyl}-amino)-benzoic acid] are 15.9 µM, 15.8 µM and 7.4 µM.
